Reference: patent US20170022171A1, “2,5-DISUBSTITUTED CYCLOPENTANECARBOXYLIC ACIDS AND THEIR USE” (Bayer Pharma Aktiengesellschaft, priority 2014, published 2017)

What was measured:
Assay type in all cases: biochemical
[1] = biological target: T1, mouse MMP-12 (Mus musculus, UniProt P34960); test: In vitro mouse MMP-12 inhibition test (standard or high-sensitivity)
T1 construct: purchased R&D Systems 3467-MP
From the text: (§1) The MMP-mediated amidolytic cleavage of a suitable peptide substrate leads to an increase in fluorescent light here too. The signal intensity of the fluorescent light is directly proportional to the enzyme activity. The active concentration of a test compound at which half the enzyme is inhibited (50% signal intensity of the fluorescent light) is reported as the IC50 value.
Recombinant mouse MMP-12 (from R&D Systems, 3467-MP) is autocatalytically activated in accordance with the manufacturer's instructions. 1 μl of the test compound to be analysed (as a solution in DMSO, suitable concentrations, for example, 1 nM to 30 μM) is pipetted into 24 μl of activated enzyme (final concentration, for example, 1 nM) in reaction buffer (50 mM Tris/HCl pH 7.5, 10 mM CaCl2, 150 mM NaCl, 0.05% Brij®-35) in a white 384-hole microtiter plate (MTP). The enzymatic reaction is started by adding the intramolecularly quenched Mca-Lys-Pro-Leu-Gly-Leu-Dpa(Dnp)-Ala-Arg-NH2 substrate (final concentration, for example, 5 μM; R&D Systems, ES-010), so as to result in a total test volume of 50 The course of the MMP-12 reaction is measured by measuring the fluorescence intensity (excitation 320 nm, emission 410 nm) over a suitable period of time (for example over 120 min at a temperature of 32° C.).
In this case, an enzyme concentration ten times lower is used (final concentration, for example, 0.1 nM) in order to achieve an elevated test sensitivity. The incubation period chosen for the test is correspondingly longer (for example 16 hours).

[2] = biological target: T2, mouse MMP-9 (Mus musculus, UniProt P41245); test: In vitro mouse MMP-9 inhibition test
T2 construct: purchased R&D Systems 909-MP
From the text: as §1
Recombinant mouse MMP-9 (from R&D Systems, 909-MP) is chemically activated in accordance with the manufacturer's instructions using APMA. 1 μl of the test compound to be analysed (as a solution in DMSO, suitable concentrations, for example, 1 nM to 30 μM) is pipetted into 24 μl of activated enzyme (final concentration, for example, 0.1 nM) in reaction buffer (50 mM Tris/HCl pH 7.5, 10 mM CaCl2, 150 mM NaCl, 0.05% Brij®-35) in a white 384-hole microtiter plate (MTP). The enzymatic reaction is started by adding the intramolecularly quenched Mca-Pro-Leu-Gly-Leu-Dpa(Dnp)-Ala-Arg-NH2 substrate (final concentration, for example, 5 μM; R&D Systems, ES-001), so as to result in a total test volume of 50 The course of the MMP-9 reaction is measured by measuring the fluorescence intensity (excitation 320 nm, emission 410 nm) over a suitable period of time (for example over 120 min at a temperature of 32° C.).

[3] = biological target: T3, MMP-16 (Homo sapiens, UniProt P51512); test: In vitro MMP-16 inhibition test
T3 construct: purchased R&D Systems 1785-MP
In short: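 Furin-activated recombinant MMP-16 (e.g. 1 nM) in 50 mM Tris/HCl pH 7.5, 10 mM CaCl2, 150 mM NaCl and 0.05% Brij-35 received compound in DMSO (e.g. 1 nM–30 μM), then 5 μM Mca-Lys-Pro-Leu-Gly-Leu-Dpa(Dnp)-Ala-Arg-NH2. Fluorescence (ex 320/em 410 nm) was followed, e.g. over 120 min at 32 °C. IC50 is the concentration halving the signal.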

[4] = biological target: T4, MMP-13 (Homo sapiens, UniProt P45452); test: In vitro MMP-13 inhibition test
T4 construct: purchased R&D Systems 511-MP
In short: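 APMA-activated recombinant MMP-13 (e.g. 0.1 nM final) in 50 mM Tris/HCl pH 7.5, 10 mM CaCl2, 150 mM NaCl, 0.05% Brij-35 with Mca-PLGL-Dpa(Dnp)-AR-NH2 substrate (e.g. 10 μM final). Fluorescence (ex 320/em 410 nm) followed e.g. 120 min at 32 °C; IC50 at 50% signal.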

[5] = biological target: T5, MMP-14 (Homo sapiens, UniProt P50281); test: In vitro MMP-14 inhibition test
T5 construct: purchased R&D Systems 918-MP
In short: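 Furin-activated recombinant MMP-14 (e.g. 0.5 nM final) with compound in Tris pH 7.5, CaCl2, NaCl, Brij-35 buffer; Mca/Dnp quenched peptide substrate, e.g. 5 μM final. Fluorescence (ex 320/em 410 nm) followed e.g. 120 min at 32 °C; IC50 at half-maximal signal.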

T2 sequence (P41245 108-730): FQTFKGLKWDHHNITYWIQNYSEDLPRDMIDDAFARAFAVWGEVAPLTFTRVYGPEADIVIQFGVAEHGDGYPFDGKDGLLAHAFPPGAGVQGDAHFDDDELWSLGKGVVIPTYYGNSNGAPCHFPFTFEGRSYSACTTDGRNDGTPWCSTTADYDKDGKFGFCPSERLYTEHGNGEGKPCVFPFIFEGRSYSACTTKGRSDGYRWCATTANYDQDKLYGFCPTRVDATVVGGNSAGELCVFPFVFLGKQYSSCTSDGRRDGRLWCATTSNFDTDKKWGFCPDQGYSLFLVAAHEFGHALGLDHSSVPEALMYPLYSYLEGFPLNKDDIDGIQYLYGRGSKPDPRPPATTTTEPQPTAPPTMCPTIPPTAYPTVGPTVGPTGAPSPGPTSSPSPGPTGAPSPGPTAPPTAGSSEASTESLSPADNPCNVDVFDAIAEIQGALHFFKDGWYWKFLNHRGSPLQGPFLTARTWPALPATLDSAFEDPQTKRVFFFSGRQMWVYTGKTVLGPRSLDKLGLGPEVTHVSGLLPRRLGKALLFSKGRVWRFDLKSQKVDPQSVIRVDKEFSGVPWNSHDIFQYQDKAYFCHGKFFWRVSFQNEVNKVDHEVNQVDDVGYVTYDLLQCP
T1 sequence (P34960 110-473): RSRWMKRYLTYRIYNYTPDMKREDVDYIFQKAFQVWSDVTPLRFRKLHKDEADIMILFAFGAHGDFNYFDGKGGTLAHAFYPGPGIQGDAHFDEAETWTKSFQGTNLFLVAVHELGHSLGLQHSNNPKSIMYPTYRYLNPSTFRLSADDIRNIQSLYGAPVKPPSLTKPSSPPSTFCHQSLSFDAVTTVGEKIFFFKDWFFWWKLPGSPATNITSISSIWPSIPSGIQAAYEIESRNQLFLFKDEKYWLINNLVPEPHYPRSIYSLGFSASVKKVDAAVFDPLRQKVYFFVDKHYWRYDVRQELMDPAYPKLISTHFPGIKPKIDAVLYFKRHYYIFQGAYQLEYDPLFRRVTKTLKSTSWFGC
T3 sequence (P51512 120-564 limits assumed): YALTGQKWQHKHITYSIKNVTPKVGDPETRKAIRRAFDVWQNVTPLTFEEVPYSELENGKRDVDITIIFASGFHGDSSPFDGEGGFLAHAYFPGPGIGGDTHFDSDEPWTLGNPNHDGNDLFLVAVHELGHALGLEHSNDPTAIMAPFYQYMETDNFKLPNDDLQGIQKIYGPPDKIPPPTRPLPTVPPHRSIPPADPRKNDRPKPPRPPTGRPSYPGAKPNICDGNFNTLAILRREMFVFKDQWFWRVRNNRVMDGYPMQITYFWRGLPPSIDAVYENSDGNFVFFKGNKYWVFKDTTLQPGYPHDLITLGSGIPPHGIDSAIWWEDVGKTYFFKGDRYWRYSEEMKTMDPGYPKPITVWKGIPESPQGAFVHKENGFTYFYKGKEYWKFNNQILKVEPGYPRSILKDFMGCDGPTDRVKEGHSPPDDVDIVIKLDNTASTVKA

Molecule | IC50 [1] | IC50 [2] | IC50 [3] | IC50 [4] | IC50 [5]
O=C(O)[C@H]1[C@H](Cn2nnc3ccccc3c2=O)CC[C@@H]1C(=O)c1ccc(OCCC2CCCCC2)cc1 (racemic) [Example 5, (+/−)-(1RS,2RS,5SR)-2-[4-(2-Cyclohexylethoxy)benzoyl]-5-[(4-oxo-1,2,3-benzotriazin-3(4H)-yl)methyl]cyclopentanecarboxylic acid] | 1.8 nM | 930 nM | 2500 nM | 350 nM | 620 nM
(+)-(1RS,2RS,5SR)-2-{4-[(3,4-Dichlorobenzyl)oxy]benzoyl}-5-{[4-oxo-6-(trifluoromethyl)-1,2,3-benzotriazin-3(4H)-yl]methyl}cyclopentanecarboxylic acid [Example 28] | 7.1 nM | 2500 nM | 2200 nM | 620 nM | 1900 nM
O=C(O)[C@H]1[C@H](Cn2nnc3ccccc3c2=O)CC[C@@H]1C(=O)c1ccc(OCc2ccc(Cl)c(Cl)c2)cc1 (racemic) [Example 3, (+/−)-(1RS,2RS,5SR)-2-{4-[(3,4-Dichlorobenzyl)oxy]benzoyl}-5-[(4-oxo-1,2,3-benzotriazin-3(4H)-yl)methyl]cyclopentanecarboxylic acid] | 7 nM | 2600 nM | 4000 nM | 340 nM | 700 nM
Cc1ccc2nnn(C[C@H]3CC[C@@H](C(=O)c4ccc(OCc5ccccc5)cc4)[C@@H]3C(=O)O)c(=O)c2c1 (single isomer, unassigned) [Example 92, (+)-(1RS,2RS,5SR)-2-[4-(Benzyloxy)benzoyl]-5-[(6-methyl-4-oxo-1,2,3-benzotriazin-3(4H)-yl)methyl]cyclopentanecarboxylic acid] | 0.42 nM | 37 nM | 110 nM | 27 nM | 33 nM
Cc1ccc2nnn(C[C@H]3CC[C@@H](C(=O)c4ccc(OCc5cccc(Cl)c5)cc4)[C@@H]3C(=O)O)c(=O)c2c1 (single isomer, unassigned) [Example 104, (+)-(1RS,2RS,5SR)-2-{4-[(3-Chlorobenzyl)oxy]benzoyl}-5-[(6-methyl-4-oxo-1,2,3-benzotriazin-3(4H)-yl)methyl]cyclopentanecarboxylic acid] | 1.1 nM | 330 nM | 540 nM | 200 nM | 230 nM
CCCCCCOc1ccc(C(=O)[C@@H]2CC[C@H](Cn3nnc4ccc(C)cc4c3=O)[C@H]2C(=O)O)cc1 (single isomer, unassigned) [Example 121, (+)-(1RS,2RS,5SR)-2-[4-(Hexyloxy)benzoyl]-5-[(6-methyl-4-oxo-1,2,3-benzotriazin-3(4H)-yl)methyl]cyclopentanecarboxylic acid] | 4 nM | 880 nM | 1900 nM | 300 nM | 820 nM
O=C(O)[C@H]1[C@H](Cn2nnc3ccccc3c2=O)CC[C@@H]1C(=O)c1ccc(OCC2CCCC2)cc1 (racemic) [Example 4, (+/−)-(1RS,2RS,5SR)-2-[4-(Cyclopentylmethoxy)benzoyl]-5-[(4-oxo-1,2,3-benzotriazin-3(4H)-yl)methyl]cyclopentanecarboxylic acid] | 1.4 nM | 61 nM | 170 nM | 58 nM | 33 nM
O=C(O)[C@@H]1[C@@H](Cn2nnc3ccc(C(F)(F)F)cc3c2=O)CC[C@H]1C(=O)c1ccc(OCc2cccc(Cl)c2)cc1 (single isomer, unassigned) [Example 23, (+)-(1RS,2RS,5SR)-2-{4-[(3-Chlorobenzyl)oxy]benzoyl}-5-{[4-oxo-6-(trifluoromethyl)-1,2,3-benzotriazin-3(4H)-yl]methyl}cyclopentanecarboxylic acid] | 6.5 nM | 1700 nM | 2200 nM | 1500 nM | 1200 nM
O=C(O)[C@H]1[C@H](Cn2nnc3ccc(C(F)(F)F)cc3c2=O)CC[C@@H]1C(=O)c1ccc(OCc2ccccc2)cc1 (racemic) [Example 11, (+/−)-(1RS,2RS,5SR)-2-[4-(Benzyloxy)benzoyl]-5-{[4-oxo-6-(trifluoromethyl)-1,2,3-benzotriazin-3(4H)-yl]methyl}cyclopentanecarboxylic acid] | 1.8 nM | 61 nM | 4500 nM | 88 nM | 150 nM
O=C(O)[C@@H]1[C@@H](Cn2nnc3ccc(C(F)(F)F)cc3c2=O)CC[C@H]1C(=O)c1ccc(SCc2ccc(Cl)c(Cl)c2)cc1 (single isomer, unassigned) [Example 80, (+)-(1RS,2RS,5SR)-2-{4-[(3,4-Dichlorobenzyl)sulphanyl]benzoyl}-5-{[4-oxo-6-(trifluoromethyl)-1,2,3-benzotriazin-3(4H)-yl]methyl}cyclopentanecarboxylic acid] | 4.3 nM | > 40000 nM | 5500 nM | 840 nM | 2600 nM
Cc1ccc2nnn(C[C@H]3CC[C@@H](C(=O)c4ccc(OCC5CCCCC5)cc4)[C@@H]3C(=O)O)c(=O)c2c1 (single isomer, unassigned) [Example 117, (+)-(1RS,2RS,5SR)-2-[4-(Cyclohexylmethoxy)benzoyl]-5-[(6-methyl-4-oxo-1,2,3-benzotriazin-3(4H)-yl)methyl]cyclopentanecarboxylic acid] | 0.62 nM | 230 nM | 260 nM | 74 nM | 88 nM
O=C(O)[C@H]1[C@H](Cn2nnc3ccc(C(F)(F)F)cc3c2=O)CC[C@@H]1C(=O)c1ccc(OCCCC2CCCCC2)cc1 (racemic) [Example 56, (+/−)-(1RS,2RS,5SR)-2-{4-(3-Cyclohexylpropoxy)benzoyl}-5-{[4-oxo-6-(trifluoromethyl)-1,2,3-benzotriazin-3(4H)-yl]methyl}cyclopentanecarboxylic acid] | 21 nM | > 40000 nM | > 40000 nM | 2400 nM | > 40000 nM
O=C(O)[C@H]1[C@H](Cn2nnc3ccccc3c2=O)CC[C@@H]1C(=O)c1ccc(OCc2ccc(F)cc2)cc1 (racemic) [Example 1, (+/−)-(1RS,2RS,5SR)-2-{4-[(4-Fluorobenzyl)oxy]benzoyl}-5-[(4-oxo-1,2,3-benzotriazin-3(4H)-yl)methyl]cyclopentanecarboxylic acid] | 0.61 nM | 31 nM | 130 nM | 11 nM | 24 nM
